Test results reported in patent US20230093099A1, “COMPOUNDS AND METHODS OF TREATING CANCERS” (CULLGEN (SHANGHAI), INC., priority 2019, published 2023).

Tests used:
Type in all cases: cell-based
[1] = test system: immortalized human lung fibroblast IMR-90 cells; assay: Cell viability of non-cancerous lung fibroblast IMR-90 cells; settings: IMR-90, 3 days, 3-fold serial dilution (FIG. 6)
Protocol: Immortalized human lung fibroblast IMR-90 and keratinocyte HACAT cells were treated with JA-189 or JA-213 for 3 days at indicated concentrations following a 3-fold serial dilution.
(§1) Cells were seeded at a density of 5000 cells per well in 96-well assay plates and treated with test compounds following a 8-point or 12-point 3-fold serial dilution. Three days later, cell viability was determined using the CellTiter-Glo assay kit according to the manufacturer's instructions. The dose-response curves were determined and IC50 values were calculated using the GraphPad Prism software following a nonlinear regression (least squares fit) method.

[2] = test system: MM.1S cells; assay: Cell viability assay (CellTiter-Glo) in MM.1S cells; settings: Homo sapiens, MM1.S, 72 h, Multiple Myeloma, 3 days
Protocol: (§2) MV4;11, RS4;11, Kasumi-1, HEL and other cells were treated with NVP-BSK805, TG101209 or selected degraders for 3 days at indicated concentrations following a 3-fold serial dilution.
(§3) HEL, RS4;11, MV4;11, Kasumi-1 and other cells were cultured at 37° C. with 5% CO2 in RPMI 1640 or DMEM Medium supplemented with 10% fetal bovine serum. Cells were authenticated using the short tandem repeat (STR) assays. Mycoplasma test results were negative.
as §1

[3] = test system: p-STAT3; assay: Immunoblot of p-STAT3 (downstream signaling) in HEL cells; settings: immunoblot (FIG. 1)
Protocol: (§4) To confirm JA-189 and JA-213 are true JAK degraders, HEL cell were treated with these two compounds at various compounds concentrations.
as §3
(§5) Rabbit anti-JAK1 antibody (3344S), anti-JAK2 antibody (3230S), anti-JAK3 antibody (8827S), anti-TYK2 antibody (14193S), anti-FLT3 antibody (3462S), anti-RET antibody (14556S), anti-phospho-STAT3 (Tyr705) antibody (9145S) and anti-phospho-STAT5 (Tyr694) antibody (4322S) were purchased from Cell Signaling Technology. Rabbit anti-GSPT1 antibody (ab126090) was purchased from Abcam. HRP-conjugated anti-α-tubulin antibody was produced in house. Media and other cell culture reagents were purchased from Thermo Fisher. The CellTiter-Glo Luminescent Assay kit was purchased from Promega.
(§6) Cultured cells were washed with cold PBS once and lysed in cold RIPA buffer supplemented with protease inhibitors and phosphatase inhibitors (Beyotime Biotechnology). […] Total protein concentrations in the lysates were determined by BCA assays (Beyotime Biotechnology). […] Protein bands were quantitated using the accompanied software provided by Bio-Rad.

[4] = test system: HL-60 cells; assay: Cell viability assay (CellTiter-Glo) in HL-60 cells; settings: Homo sapiens, 72 h, HL-60, APL, 3 days
Protocol: as §2, §3, §1

[5] = target: T1, JAK1 (Homo sapiens, UniProt P23458); assay: Immunoblot of JAK1 protein level in HEL cells; settings: 24 hours, immunoblot (FIG. 1)
T1 construct: immunoblot of JAK1/3 proteins expressed in RS4;11 cells; endogenous in cells; host or cells: RS4;11 cells
Protocol: HEL cells harboring JAK2-V617F mutation were treated with compounds at indicated concentrations for 24 hours. […] The concentrations required to reduce JAK2-V617 by 50% (DC50) were below 60 nM for compound JA-213.
as §3, §5, §6

[6] = test system: NOMO-1 cells; assay: Cell viability assay (CellTiter-Glo) in NOMO-1 cells; settings: Homo sapiens, 72 h, NOMO-1, AML, 3 days
Protocol: as §2, §3, §1

[7] = test system: SU-DHL-1 cells; assay: Cell viability assay (CellTiter-Glo) in SU-DHL-1 cells; settings: Homo sapiens, 72 h, SU-DHL-1, large cell lymphoma, 3 days
Protocol: as §2, §3, §1

[8] = test system: HEL cells; assay: Cell viability assay (CellTiter-Glo) in HEL cells; settings: 3 days; for cell viability inhibition in combination with pomalidomide: pomalidomide at 10 μM (FIG. 4); for IC50: Homo sapiens, 72 h, erythroleukemia, cell viability
Protocol: as §2, §3, §1

[9] = target: T2, JAK3 (Homo sapiens, UniProt P52333); assay: Immunoblot of JAK3 protein level in HEL cells; settings: immunoblot (FIG. 1)
T2 construct: immunoblot of JAK1/2/3 proteins expressed in HEL cells; endogenous in cells; host or cells: HEL cells
T2 sequence (P52333 1-1124): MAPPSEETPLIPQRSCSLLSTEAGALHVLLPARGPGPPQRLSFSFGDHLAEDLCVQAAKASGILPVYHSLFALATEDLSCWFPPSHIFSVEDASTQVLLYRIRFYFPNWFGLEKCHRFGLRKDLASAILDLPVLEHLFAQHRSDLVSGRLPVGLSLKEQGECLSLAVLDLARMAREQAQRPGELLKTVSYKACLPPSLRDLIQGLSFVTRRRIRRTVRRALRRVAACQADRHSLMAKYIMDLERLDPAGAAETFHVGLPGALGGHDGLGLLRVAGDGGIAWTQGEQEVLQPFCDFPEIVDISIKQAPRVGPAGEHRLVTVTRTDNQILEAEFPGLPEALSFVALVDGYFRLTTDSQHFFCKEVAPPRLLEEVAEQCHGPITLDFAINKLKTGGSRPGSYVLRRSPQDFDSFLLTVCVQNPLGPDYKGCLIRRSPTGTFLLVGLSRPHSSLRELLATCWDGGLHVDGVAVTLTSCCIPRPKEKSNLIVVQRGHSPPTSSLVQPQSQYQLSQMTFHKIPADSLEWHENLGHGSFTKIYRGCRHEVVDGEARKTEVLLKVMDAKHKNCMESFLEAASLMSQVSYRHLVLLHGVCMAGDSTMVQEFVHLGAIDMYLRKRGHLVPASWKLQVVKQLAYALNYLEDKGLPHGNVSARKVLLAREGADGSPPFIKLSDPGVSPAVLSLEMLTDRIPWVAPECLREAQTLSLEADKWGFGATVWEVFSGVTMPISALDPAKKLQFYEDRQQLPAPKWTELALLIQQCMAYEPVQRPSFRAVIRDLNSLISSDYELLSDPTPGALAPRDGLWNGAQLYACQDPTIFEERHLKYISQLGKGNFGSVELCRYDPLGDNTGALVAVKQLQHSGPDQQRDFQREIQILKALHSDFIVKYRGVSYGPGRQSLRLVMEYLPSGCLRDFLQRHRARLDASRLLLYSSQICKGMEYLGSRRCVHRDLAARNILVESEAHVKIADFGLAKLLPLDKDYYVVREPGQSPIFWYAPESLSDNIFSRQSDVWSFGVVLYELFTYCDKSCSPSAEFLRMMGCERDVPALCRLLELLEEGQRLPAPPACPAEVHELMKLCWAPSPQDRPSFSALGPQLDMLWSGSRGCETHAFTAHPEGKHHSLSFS
Protocol: as §4, §3, §5, §6

[10] = test system: Kasumi-1 cells; assay: Cell viability assay (CellTiter-Glo) in Kasumi-1 cells; settings: for IC50: Homo sapiens, 72 h, Kasumi-1, AML, cell viability, 3 days; for cell viability inhibition in combination with pomalidomide: Kasumi-1, 3 days, pomalidomide at 10 μM (FIG. 4)
Protocol: as §2, §3, §1

T1 sequence (P23458 whole entry): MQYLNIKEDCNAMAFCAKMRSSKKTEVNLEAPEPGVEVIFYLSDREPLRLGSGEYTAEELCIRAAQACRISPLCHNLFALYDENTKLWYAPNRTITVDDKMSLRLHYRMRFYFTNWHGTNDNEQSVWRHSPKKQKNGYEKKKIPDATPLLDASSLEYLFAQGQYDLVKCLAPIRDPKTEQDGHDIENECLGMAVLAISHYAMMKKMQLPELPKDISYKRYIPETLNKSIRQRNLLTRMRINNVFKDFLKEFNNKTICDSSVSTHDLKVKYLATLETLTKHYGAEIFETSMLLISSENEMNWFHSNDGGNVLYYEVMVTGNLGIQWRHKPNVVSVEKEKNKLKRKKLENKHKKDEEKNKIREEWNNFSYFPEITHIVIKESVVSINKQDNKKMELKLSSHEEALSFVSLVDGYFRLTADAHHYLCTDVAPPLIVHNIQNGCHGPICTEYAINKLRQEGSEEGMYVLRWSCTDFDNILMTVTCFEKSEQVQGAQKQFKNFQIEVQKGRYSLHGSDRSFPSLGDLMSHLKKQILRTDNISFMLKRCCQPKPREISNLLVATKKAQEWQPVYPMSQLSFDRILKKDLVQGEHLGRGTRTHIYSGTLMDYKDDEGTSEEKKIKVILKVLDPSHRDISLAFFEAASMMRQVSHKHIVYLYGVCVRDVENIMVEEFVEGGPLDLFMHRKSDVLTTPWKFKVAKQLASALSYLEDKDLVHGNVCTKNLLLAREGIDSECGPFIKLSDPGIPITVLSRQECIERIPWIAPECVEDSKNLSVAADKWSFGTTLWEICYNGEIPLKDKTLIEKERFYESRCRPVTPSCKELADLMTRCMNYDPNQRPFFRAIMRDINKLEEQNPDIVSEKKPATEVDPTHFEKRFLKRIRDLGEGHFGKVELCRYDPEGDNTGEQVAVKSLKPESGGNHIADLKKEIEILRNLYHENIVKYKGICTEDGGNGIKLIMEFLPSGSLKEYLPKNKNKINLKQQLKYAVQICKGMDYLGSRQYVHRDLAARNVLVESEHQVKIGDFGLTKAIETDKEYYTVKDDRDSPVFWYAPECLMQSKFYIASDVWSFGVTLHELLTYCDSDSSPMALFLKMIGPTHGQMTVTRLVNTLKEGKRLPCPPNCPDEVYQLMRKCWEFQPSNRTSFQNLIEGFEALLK

| SMILES | sensitivity of non-cancerous cells (cell viability) [1] | IC50 [2] | down stream signaling, p-STAT3 band [3] | IC50 [4] | JAK1 protein level [5] | IC50 [6] | IC50 [7] | cell viability inhibition in combination with pomalidomide [8] | IC50 [8] | JAK3 protein level [9] | IC50 [10] | cell viability inhibition in combination with pomalidomide [10] |
| --- | --- | --- | --- | --- | --- | --- | --- | --- | --- | --- | --- | --- |
| O=C1CCC(N2C(=O)c3ccc(NCCCCCC(=O)N4CCC(n5cc(-c6cnc7cccc(-c8cc(F)c(CN9CCOCC9)c(F)c8)c7n6)cn5)CC4)cc3C2=O)C(=O)N1 (stereo not drawn) [JA-189, 5-((6-(4-(4-(8-(3,5-difluoro-4-(morpholinomethyl)phenyl)quinoxalin-2-yl)-1H-pyrazol-1-yl)piperidin-1-yl)-6-oxohexyl)amino)-2-(2,6-dioxopiperidin-3-yl)isoindoline-1,3-dione] | not sensitive | 2.27 nM | weaker bands of p-STAT3 and p-STAT5 | 2.54 nM | able to reduce JAK1, JAK2 and JAK3 protein levels | 53.2 nM | 222 nM | greatly reduce the potencies of the degraders | 177 nM | able to reduce JAK1, JAK2 and JAK3 protein levels | 86.3 nM | greatly reduce the potencies of the degraders |
| CS(=O)(=O)c1ccc(-c2cccc3nc(Nc4ccc(N5CCN(CC(=O)NCCCCCCCCNc6ccc7c(c6)C(=O)N(C6CCC(=O)NC6=O)C7=O)CC5)cc4)nn23)cc1 (stereo not drawn) [JA-213] | not sensitive | 23.1 nM | weaker bands of p-STAT3 and p-STAT5 | 19.2 nM | able to reduce JAK1, JAK2 and JAK3 protein levels | 81.7 nM | 319 nM | greatly reduce the potencies of the degraders | 82.1 nM | able to reduce JAK1, JAK2 and JAK3 protein levels | 69.1 nM | greatly reduce the potencies of the degraders |
